Reference: patent US20230085307A1, “PYRIDAZINONE COMPOUND AND HERBICIDE” (NISSAN CHEMICAL CORPORATION, priority 2019, published 2023)

Tests used:
oval-leafed pondweed = assay: Test Example 1: herbicidal activity, application before weed generation under submerged conditions (Table 16, symbol C); assay type: in vivo, oval-leafed pondweed (Monochoria vaginalis); conditions: 320 g/ha applied herbicide
Procedure, shortened: (§1)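 Submerged Wagner pots (alluvial soil, 4 cm water) sown with weed seeds and planted with 2.5-leaf rice seedlings; emulsifiable concentrate diluted in water applied to water surface on sowing day. Held in greenhouse at 25-30 °C; injury scored 0-5 by herbicidal rate after three weeks.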

late watergrass = assay: Test Example 1: herbicidal activity, application before weed generation under submerged conditions (Table 16, symbol A); assay type: in vivo, late watergrass (Echinochloa oryzicola); conditions: 320 g/ha applied herbicide
Procedure, shortened: as §1

Italian ryegrass [1] = assay: Test Example 5: herbicidal effect by foliage application, plastic box (Table 20, symbol K); assay type: in vivo, Italian ryegrass (Lolium multiflorum); conditions: foliage application, 320 g/ha, evaluated three weeks after application
Procedure, shortened: (§2)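 Sow seeds spot-wise in sterilized diluvial soil; cover with ~1.5 cm soil. Grow 14 days in greenhouse, 25° C. to 30° C. Spray foliage with emulsion diluted to predetermined amount. Rate effect after 3 weeks.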

southern crabgrass [2] = assay: Test Example 5: herbicidal effect by foliage application, plastic box (Table 20, symbol F); assay type: in vivo, southern crabgrass (Digitaria ciliaris); conditions: foliage application, 320 g/ha, evaluated three weeks after application
Procedure, shortened: as §2

rice flat sedge = assay: Test Example 3: herbicidal effect by foliage application, Wagner pot (Table 18, symbol E); assay type: in vivo, rice flat sedge (Cyperus iria); conditions: amount of applied herbicide 320 g/ha
Procedure, shortened: (§3)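 Plants were sown in alluvial soil held under 0.1–0.5 cm standing water and grown 14 days in a greenhouse at 25–30 °C. An emulsifiable formulation, water-diluted to the set dose, was then sprayed onto the foliage, and effects were scored three weeks later using previously defined criteria.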

green foxtail [3] = assay: Test Example 5: herbicidal effect by foliage application, plastic box (Table 20, symbol G); assay type: in vivo, green foxtail (Setaria viridis); conditions: foliage application, 320 g/ha, evaluated three weeks after application
Procedure, shortened: as §2

chickweed [4] = assay: Test Example 4: herbicidal effect by soil treatment (Table 19, symbol P); assay type: in vivo, common chickweed (Stellaria media); conditions: amount of applied herbicide 320 g/ha
Procedure, shortened: (§4)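 Soil-surface application: an emulsion agent diluted with water to the predetermined dose is sprayed uniformly over seeds lying under roughly 1.5 cm of sterilized diluvial soil. Boxes stay in a greenhouse at 25° C. to 30° C. Three weeks later, each species is graded on previously defined criteria.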

velvetleaf [5] = assay: Test Example 4: herbicidal effect by soil treatment (Table 19, symbol M); assay type: in vivo, velvetleaf (Abutilon theophrasti); conditions: amount of applied herbicide 320 g/ha
Procedure, shortened: as §4

blackgrass [6] = assay: Test Example 4: herbicidal effect by soil treatment (Table 19, symbol J); assay type: in vivo, blackgrass (Alopecurus myosuroides); conditions: amount of applied herbicide 320 g/ha
Procedure, shortened: as §4

lambsquarters [7] = assay: Test Example 5: herbicidal effect by foliage application, plastic box (Table 20, symbol O); assay type: in vivo, lambsquarters (Chenopodium album); conditions: foliage application, 320 g/ha, evaluated three weeks after application
Procedure, shortened: as §2

velvetleaf [8] = assay: Test Example 5: herbicidal effect by foliage application, plastic box (Table 20, symbol M); assay type: in vivo, velvetleaf (Abutilon theophrasti); conditions: foliage application, 320 g/ha, evaluated three weeks after application
Procedure, shortened: as §2

redroot pigweed = assay: Test Example 4: herbicidal effect by soil treatment (Table 19, symbol N); assay type: in vivo, redroot pigweed (Amaranthus retroflexus); conditions: amount of applied herbicide 320 g/ha
Procedure, shortened: as §4

Italian ryegrass [9] = assay: Test Example 4: herbicidal effect by soil treatment (Table 19, symbol K); assay type: in vivo, Italian ryegrass (Lolium multiflorum); conditions: amount of applied herbicide 320 g/ha
Procedure, shortened: as §4

green foxtail [10] = assay: Test Example 4: herbicidal effect by soil treatment (Table 19, symbol G); assay type: in vivo, green foxtail (Setaria viridis); conditions: amount of applied herbicide 320 g/ha
Procedure, shortened: as §4

persian speedwell [11] = assay: Test Example 5: herbicidal effect by foliage application, plastic box (Table 20, symbol R); assay type: in vivo, Persian speedwell (Veronica persica); conditions: foliage application, 320 g/ha, evaluated three weeks after application
Procedure, shortened: as §2

southern crabgrass [12] = assay: Test Example 4: herbicidal effect by soil treatment (Table 19, symbol F); assay type: in vivo, southern crabgrass (Digitaria ciliaris); conditions: amount of applied herbicide 320 g/ha
Procedure, shortened: as §4

windgrass [13] = assay: Test Example 4: herbicidal effect by soil treatment (Table 19, symbol L); assay type: in vivo, windgrass (Apera spica-venti); conditions: amount of applied herbicide 320 g/ha
Procedure, shortened: as §4

barnyard grass [14] = assay: Test Example 3: herbicidal effect by foliage application, Wagner pot (Table 18, symbol H); assay type: in vivo, barnyard grass (Echinochloa crus-galli); conditions: amount of applied herbicide 320 g/ha
Procedure, shortened: as §3

windgrass [15] = assay: Test Example 5: herbicidal effect by foliage application, plastic box (Table 20, symbol L); assay type: in vivo, windgrass (Apera spica-venti); conditions: foliage application, 320 g/ha, evaluated three weeks after application
Procedure, shortened: as §2

wild oat [16] = assay: Test Example 4: herbicidal effect by soil treatment (Table 19, symbol I); assay type: in vivo, wild oat (Avena fatua); conditions: amount of applied herbicide 320 g/ha
Procedure, shortened: as §4

persian speedwell [17] = assay: Test Example 4: herbicidal effect by soil treatment (Table 19, symbol R); assay type: in vivo, Persian speedwell (Veronica persica); conditions: amount of applied herbicide 320 g/ha
Procedure, shortened: as §4

blackgrass [18] = assay: Test Example 5: herbicidal effect by foliage application, plastic box (Table 20, symbol J); assay type: in vivo, blackgrass (Alopecurus myosuroides); conditions: foliage application, 320 g/ha, evaluated three weeks after application
Procedure, shortened: as §2

barnyard grass [19] = assay: Test Example 4: herbicidal effect by soil treatment (Table 19, symbol H); assay type: in vivo, barnyard grass (Echinochloa crus-galli); conditions: amount of applied herbicide 320 g/ha
Procedure, shortened: as §4

lambsquarters [20] = assay: Test Example 4: herbicidal effect by soil treatment (Table 19, symbol O); assay type: in vivo, lambsquarters (Chenopodium album); conditions: amount of applied herbicide 320 g/ha
Procedure, shortened: as §4

Chinese sprangletop = assay: Test Example 3: herbicidal effect by foliage application, Wagner pot (Table 18, symbol D); assay type: in vivo, chinese sprangletop (Leptochloa chinensis); conditions: amount of applied herbicide 320 g/ha
Procedure, shortened: as §3

chickweed [21] = assay: Test Example 5: herbicidal effect by foliage application, plastic box (Table 20, symbol P); assay type: in vivo, common chickweed (Stellaria media); conditions: foliage application, 320 g/ha, evaluated three weeks after application
Procedure, shortened: as §2

barnyard grass [22] = assay: Test Example 5: herbicidal effect by foliage application, plastic box (Table 20, symbol H); assay type: in vivo, barnyard grass (Echinochloa crus-galli); conditions: foliage application, 320 g/ha, evaluated three weeks after application
Procedure, shortened: as §2

wild oat [23] = assay: Test Example 5: herbicidal effect by foliage application, plastic box (Table 20, symbol I); assay type: in vivo, wild oat (Avena fatua); conditions: foliage application, 320 g/ha, evaluated three weeks after application
Procedure, shortened: as §2

Japanese bulrush = assay: Test Example 1: herbicidal activity, application before weed generation under submerged conditions (Table 16, symbol B); assay type: in vivo, Japanese bulrush (Schoenoplectus juncoides); conditions: 320 g/ha applied herbicide
Procedure, shortened: as §1

## CCCOc1ccc2sc(-c3ccc(F)cc3OC)c(-c3c(O)c(C)nn(C)c3=O)c2c1 [2-173]
oval-leafed pondweed
  Herbicidal effect on C: oval-leafed pondweed (grade 0-5): 0 (Herbicidal rate of 5% or less (almost no effect))
Late watergrass
  Herbicidal effect on A: late watergrass (grade 0-5): 2 (Herbicidal rate of 20% or more and less than 40%)
Italian ryegrass [1]
  herbicidal effect on K: Italian ryegrass (criteria 0-5): 0 (Herbicidal rate of 5% or less (almost no effect))
Southern crabgrass [2]
  herbicidal effect on F: southern crabgrass (criteria 0-5): 0 (Herbicidal rate of 5% or less (almost no effect))
Rice flat sedge
  herbicidal effect on E: rice flat sedge: 2 (Herbicidal rate of 20% or more and less than 40%)
Green foxtail [3]
  herbicidal effect on G: green foxtail (criteria 0-5): 0 (Herbicidal rate of 5% or less (almost no effect))
Chickweed [4]
  P: chickweed, herbicidal effect rating: 3 (Herbicidal rate of 40% or more and less than 70%)
Velvetleaf [5]
  M: velvetleaf, herbicidal effect rating: 0 (Herbicidal rate of 5% or less (almost no effect))
Blackgrass [6]
  J: blackgrass, herbicidal effect rating: 0 (Herbicidal rate of 5% or less (almost no effect))
Lambsquarters [7]
  herbicidal effect on O: lambsquarters (criteria 0-5): 1 (Herbicidal rate of 5% or more and less than 20%)
Velvetleaf [8]
  herbicidal effect on M: velvetleaf (criteria 0-5): 0 (Herbicidal rate of 5% or less (almost no effect))
Redroot pigweed
  N: redroot pigweed, herbicidal effect rating: 0 (Herbicidal rate of 5% or less (almost no effect))
Italian ryegrass [9]
  K: Italian ryegrass, herbicidal effect rating: 0 (Herbicidal rate of 5% or less (almost no effect))
Green foxtail [10]
  G: green foxtail, herbicidal effect rating: 0 (Herbicidal rate of 5% or less (almost no effect))
Persian speedwell [11]
  herbicidal effect on R: persian speedwell (criteria 0-5): 5 (Herbicidal rate of 90% or more (almost completely withered))
Southern crabgrass [12]
  F: southern crabgrass, herbicidal effect rating: 0 (Herbicidal rate of 5% or less (almost no effect))
Windgrass [13]
  L: windgrass, herbicidal effect rating: 0 (Herbicidal rate of 5% or less (almost no effect))
Barnyard grass [14]
  herbicidal effect on H: barnyard grass: 3 (Herbicidal rate of 40% or more and less than 70%)
Windgrass [15]
  herbicidal effect on L: windgrass (criteria 0-5): 4 (Herbicidal rate of 70% or more and less than 90%)
Wild oat [16]
  I: wild oat, herbicidal effect rating: 0 (Herbicidal rate of 5% or less (almost no effect))
Persian speedwell [17]
  R: persian speedwell, herbicidal effect rating: 0 (Herbicidal rate of 5% or less (almost no effect))
Blackgrass [18]
  herbicidal effect on J: blackgrass (criteria 0-5): 4 (Herbicidal rate of 70% or more and less than 90%)
Barnyard grass [19]
  H: barnyard grass, herbicidal effect rating: 0 (Herbicidal rate of 5% or less (almost no effect))
Lambsquarters [20]
  O: lambsquarters, herbicidal effect rating: 0 (Herbicidal rate of 5% or less (almost no effect))
Chinese sprangletop
  herbicidal effect on D: Chinese sprangletop: 2 (Herbicidal rate of 20% or more and less than 40%)
Chickweed [21]
  herbicidal effect on P: chickweed (criteria 0-5): 5 (Herbicidal rate of 90% or more (almost completely withered))
Barnyard grass [22]
  herbicidal effect on H: barnyard grass (criteria 0-5): 0 (Herbicidal rate of 5% or less (almost no effect))
Wild oat [23]
  herbicidal effect on I: wild oat (criteria 0-5): 0 (Herbicidal rate of 5% or less (almost no effect))
Japanese bulrush
  Herbicidal effect on B: Japanese bulrush (grade 0-5): 0 (Herbicidal rate of 5% or less (almost no effect))
